Test results published in publication PMC5540273, “Progress towards a public chemogenomic set for protein kinases and a call for contributions” (PLoS ONE, 2017).

What was measured:
Experiment in all cases: KINOMEscan competition binding
DAPK1 = DAPK1 (Homo sapiens, UniProt P53355); settings: read-out: %Inh DAPK1
FAK = FAK (Homo sapiens, UniProt Q05397); settings: read-out: %Inh FAK
AKT2 = AKT2 (Homo sapiens, UniProt P31751); settings: read-out: %Inh AKT2
ERBB4 = ERBB4 (Homo sapiens, UniProt Q15303); settings: read-out: %Inh ERBB4
CLK2 = CLK2 (Homo sapiens, UniProt P49760); settings: read-out: %Inh CLK2
Sequence of CLK2 (P49760 whole entry): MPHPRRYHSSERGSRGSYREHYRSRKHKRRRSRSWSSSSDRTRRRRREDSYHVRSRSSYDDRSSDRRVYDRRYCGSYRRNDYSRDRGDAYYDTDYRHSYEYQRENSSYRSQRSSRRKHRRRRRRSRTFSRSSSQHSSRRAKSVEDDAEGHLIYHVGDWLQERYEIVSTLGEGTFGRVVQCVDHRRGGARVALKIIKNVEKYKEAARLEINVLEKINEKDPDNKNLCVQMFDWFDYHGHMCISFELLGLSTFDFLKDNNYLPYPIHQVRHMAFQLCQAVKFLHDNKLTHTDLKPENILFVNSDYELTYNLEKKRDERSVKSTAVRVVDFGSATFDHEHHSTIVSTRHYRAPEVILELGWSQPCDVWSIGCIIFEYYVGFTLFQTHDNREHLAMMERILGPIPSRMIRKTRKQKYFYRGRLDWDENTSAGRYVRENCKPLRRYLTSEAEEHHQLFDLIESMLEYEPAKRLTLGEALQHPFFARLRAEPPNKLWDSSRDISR

BRSK2 = target: T1, BRSK2 (Homo sapiens, UniProt Q8IWQ3); settings: read-out: %Inh BRSK2
T1 sequence (Q8IWQ3 1-736): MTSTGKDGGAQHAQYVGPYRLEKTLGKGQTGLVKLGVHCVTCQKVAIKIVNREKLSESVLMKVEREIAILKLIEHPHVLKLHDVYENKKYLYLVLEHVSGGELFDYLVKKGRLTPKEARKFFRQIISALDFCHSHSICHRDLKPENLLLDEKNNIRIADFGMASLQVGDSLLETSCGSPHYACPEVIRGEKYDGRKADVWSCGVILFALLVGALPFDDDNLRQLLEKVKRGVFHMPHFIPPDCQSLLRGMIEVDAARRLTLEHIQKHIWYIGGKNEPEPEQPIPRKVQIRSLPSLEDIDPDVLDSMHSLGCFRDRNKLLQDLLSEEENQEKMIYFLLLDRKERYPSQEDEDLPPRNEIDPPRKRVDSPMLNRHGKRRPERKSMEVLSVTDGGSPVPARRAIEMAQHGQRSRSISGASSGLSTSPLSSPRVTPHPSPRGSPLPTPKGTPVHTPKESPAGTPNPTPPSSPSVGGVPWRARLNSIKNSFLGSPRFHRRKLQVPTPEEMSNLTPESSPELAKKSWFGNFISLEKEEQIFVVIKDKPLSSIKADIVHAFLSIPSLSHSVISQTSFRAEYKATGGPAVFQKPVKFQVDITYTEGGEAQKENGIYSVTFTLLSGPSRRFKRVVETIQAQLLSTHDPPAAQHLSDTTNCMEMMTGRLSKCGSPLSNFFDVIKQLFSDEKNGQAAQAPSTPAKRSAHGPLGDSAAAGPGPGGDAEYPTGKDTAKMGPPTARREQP

CHEK2 = CHEK2 (Homo sapiens, UniProt O96017); settings: read-out: %Inh CHEK2
Sequence of CHEK2 (O96017 whole entry): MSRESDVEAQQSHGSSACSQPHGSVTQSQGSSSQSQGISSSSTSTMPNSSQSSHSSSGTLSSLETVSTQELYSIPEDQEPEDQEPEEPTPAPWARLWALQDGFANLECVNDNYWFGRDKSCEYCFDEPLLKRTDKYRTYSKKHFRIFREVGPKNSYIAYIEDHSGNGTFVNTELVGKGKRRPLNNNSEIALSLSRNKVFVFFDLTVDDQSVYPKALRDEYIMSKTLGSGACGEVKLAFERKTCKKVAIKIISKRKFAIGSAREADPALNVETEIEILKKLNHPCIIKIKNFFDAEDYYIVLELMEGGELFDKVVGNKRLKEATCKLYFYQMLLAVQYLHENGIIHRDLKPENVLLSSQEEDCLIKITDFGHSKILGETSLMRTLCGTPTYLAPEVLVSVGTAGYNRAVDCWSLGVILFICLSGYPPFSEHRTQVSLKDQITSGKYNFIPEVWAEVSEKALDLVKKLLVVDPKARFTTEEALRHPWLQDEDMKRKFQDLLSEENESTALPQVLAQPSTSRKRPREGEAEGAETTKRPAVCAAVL

EPHA8 = target: T2, EPHA8 (Homo sapiens, UniProt P29322); settings: read-out: %Inh EPHA8
T2 sequence (P29322 28-1005): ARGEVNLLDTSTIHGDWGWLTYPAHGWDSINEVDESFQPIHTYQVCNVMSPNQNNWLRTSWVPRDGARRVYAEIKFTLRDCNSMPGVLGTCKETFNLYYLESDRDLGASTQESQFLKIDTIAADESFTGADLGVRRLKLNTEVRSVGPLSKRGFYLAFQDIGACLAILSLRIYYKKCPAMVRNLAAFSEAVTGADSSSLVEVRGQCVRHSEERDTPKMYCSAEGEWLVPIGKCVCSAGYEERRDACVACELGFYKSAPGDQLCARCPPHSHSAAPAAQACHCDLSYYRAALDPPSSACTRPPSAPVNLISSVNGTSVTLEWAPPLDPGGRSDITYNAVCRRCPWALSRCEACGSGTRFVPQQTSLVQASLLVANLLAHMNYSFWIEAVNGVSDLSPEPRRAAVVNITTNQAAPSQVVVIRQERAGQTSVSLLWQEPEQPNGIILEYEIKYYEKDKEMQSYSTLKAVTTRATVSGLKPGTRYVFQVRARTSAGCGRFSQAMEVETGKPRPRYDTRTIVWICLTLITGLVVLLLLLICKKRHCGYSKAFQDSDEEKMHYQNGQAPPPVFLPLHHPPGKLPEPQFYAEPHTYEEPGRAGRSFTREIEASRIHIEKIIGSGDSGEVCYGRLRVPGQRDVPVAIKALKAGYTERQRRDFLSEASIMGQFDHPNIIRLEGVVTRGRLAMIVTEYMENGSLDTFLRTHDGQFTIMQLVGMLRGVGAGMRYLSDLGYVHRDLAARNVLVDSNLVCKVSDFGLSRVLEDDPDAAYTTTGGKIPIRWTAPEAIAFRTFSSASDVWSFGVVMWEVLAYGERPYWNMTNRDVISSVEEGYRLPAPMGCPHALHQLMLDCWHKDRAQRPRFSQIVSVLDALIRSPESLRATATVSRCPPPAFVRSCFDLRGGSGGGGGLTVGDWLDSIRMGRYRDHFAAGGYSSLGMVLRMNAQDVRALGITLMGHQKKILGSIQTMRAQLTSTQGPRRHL

Sequence of AKT2 (P31751 whole entry): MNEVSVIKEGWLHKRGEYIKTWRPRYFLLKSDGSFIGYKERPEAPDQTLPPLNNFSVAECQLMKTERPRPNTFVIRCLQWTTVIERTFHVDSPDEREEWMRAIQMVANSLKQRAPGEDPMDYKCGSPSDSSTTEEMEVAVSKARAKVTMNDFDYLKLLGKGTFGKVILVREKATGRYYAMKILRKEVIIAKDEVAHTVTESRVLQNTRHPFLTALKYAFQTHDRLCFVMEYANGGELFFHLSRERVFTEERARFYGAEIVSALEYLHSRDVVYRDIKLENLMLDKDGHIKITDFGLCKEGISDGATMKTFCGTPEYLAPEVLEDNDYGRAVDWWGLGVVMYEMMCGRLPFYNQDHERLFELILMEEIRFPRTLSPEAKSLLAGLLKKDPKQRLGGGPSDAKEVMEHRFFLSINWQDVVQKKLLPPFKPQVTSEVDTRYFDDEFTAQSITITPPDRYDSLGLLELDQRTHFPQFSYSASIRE
Sequence of DAPK1 (P53355 whole entry): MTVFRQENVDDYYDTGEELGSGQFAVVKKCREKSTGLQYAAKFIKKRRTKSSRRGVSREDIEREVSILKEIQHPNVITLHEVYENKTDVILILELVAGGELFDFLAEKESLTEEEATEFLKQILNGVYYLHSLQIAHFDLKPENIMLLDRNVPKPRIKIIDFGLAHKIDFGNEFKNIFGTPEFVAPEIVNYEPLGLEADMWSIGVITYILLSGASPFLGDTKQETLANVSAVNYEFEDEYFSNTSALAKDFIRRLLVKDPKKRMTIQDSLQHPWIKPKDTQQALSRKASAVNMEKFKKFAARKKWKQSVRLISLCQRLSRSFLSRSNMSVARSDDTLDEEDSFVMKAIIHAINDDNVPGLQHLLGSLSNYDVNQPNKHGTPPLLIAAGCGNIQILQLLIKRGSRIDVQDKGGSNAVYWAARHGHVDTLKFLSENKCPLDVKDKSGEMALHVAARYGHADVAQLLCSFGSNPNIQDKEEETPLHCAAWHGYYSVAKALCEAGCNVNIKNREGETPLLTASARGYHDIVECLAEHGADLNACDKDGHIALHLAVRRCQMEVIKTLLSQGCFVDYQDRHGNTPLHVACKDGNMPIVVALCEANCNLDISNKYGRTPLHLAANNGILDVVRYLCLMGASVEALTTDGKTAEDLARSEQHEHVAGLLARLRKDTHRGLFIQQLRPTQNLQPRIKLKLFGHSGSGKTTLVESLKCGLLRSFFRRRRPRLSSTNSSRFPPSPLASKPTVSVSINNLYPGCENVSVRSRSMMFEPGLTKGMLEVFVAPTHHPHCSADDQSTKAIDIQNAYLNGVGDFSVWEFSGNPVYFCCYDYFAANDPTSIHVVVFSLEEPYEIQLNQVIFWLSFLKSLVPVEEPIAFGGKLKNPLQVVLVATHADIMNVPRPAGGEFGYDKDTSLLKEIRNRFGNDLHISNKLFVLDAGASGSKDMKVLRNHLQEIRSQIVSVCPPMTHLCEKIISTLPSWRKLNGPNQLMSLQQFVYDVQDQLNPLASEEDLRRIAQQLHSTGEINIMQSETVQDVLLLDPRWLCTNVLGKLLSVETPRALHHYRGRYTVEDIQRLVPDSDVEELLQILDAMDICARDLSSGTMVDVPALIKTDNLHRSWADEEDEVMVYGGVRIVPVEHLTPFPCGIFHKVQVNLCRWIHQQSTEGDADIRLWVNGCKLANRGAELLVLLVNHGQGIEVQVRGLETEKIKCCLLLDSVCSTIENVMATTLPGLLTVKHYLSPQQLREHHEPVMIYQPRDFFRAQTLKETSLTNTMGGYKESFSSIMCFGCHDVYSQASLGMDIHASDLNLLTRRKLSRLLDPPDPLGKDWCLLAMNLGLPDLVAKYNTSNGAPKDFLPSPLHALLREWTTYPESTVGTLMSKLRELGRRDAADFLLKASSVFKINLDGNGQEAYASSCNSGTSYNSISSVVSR
Sequence of FAK (Q05397 whole entry): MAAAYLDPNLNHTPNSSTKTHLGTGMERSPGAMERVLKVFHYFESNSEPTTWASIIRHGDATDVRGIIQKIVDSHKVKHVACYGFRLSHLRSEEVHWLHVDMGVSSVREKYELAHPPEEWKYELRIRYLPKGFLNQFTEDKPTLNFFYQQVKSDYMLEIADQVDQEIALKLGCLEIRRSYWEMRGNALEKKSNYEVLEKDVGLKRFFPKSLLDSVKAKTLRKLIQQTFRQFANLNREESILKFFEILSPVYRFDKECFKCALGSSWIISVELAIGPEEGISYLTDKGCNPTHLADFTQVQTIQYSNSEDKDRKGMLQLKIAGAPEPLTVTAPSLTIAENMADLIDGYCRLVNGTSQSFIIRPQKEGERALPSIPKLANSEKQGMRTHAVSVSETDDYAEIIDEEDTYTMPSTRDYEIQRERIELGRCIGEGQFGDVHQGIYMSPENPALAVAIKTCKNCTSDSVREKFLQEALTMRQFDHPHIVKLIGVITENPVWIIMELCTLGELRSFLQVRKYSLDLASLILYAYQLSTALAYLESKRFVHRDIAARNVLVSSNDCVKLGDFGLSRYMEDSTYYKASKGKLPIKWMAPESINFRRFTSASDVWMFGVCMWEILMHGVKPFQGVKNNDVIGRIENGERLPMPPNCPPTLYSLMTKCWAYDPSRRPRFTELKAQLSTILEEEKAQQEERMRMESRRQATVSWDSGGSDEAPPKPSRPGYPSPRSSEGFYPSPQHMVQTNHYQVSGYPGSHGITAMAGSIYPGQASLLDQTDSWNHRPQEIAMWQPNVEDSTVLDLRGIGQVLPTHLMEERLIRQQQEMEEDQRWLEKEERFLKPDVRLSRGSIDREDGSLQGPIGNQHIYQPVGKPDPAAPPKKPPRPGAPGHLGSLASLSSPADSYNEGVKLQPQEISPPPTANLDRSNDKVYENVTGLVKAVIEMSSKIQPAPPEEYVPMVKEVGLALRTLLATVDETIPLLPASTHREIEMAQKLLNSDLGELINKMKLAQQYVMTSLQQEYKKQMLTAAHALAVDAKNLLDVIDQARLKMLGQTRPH

## Cn1cc(-c2cnc(N)c3c(-c4ccc5c(c4)CCN5C(=O)Cc4ccccc4)csc23)cn1 [UNC10225012A]
DAPK1
  inhibition at 1 µM: 38%
FAK
  inhibition at 1 µM: 7%
AKT2
  inhibition at 1 µM: 0%
ERBB4
  inhibition at 1 µM: 0%
CLK2
  inhibition at 1 µM: 19%
BRSK2
  inhibition at 1 µM: 7%
CHEK2
  inhibition at 1 µM: 0%
EPHA8
  inhibition at 1 µM: 8%

## O=c1cc(N2CCOCC2)nc2n(Cc3cccc(Cl)c3Cl)c(C3CC3)nn12 [UNC10225469A]
DAPK1
  inhibition at 1 µM: 26%
FAK
  inhibition at 1 µM: 0%
AKT2
  inhibition at 1 µM: 0%
ERBB4
  inhibition at 1 µM: 0%
CLK2
  inhibition at 1 µM: 25%
BRSK2
  inhibition at 1 µM: 0%
CHEK2
  inhibition at 1 µM: 0%
EPHA8
  inhibition at 1 µM: 9%

## COc1cccc(OC)c1C(=O)Nc1cccc(-c2nn3ccccc3c2-c2ccnc(Nc3cccc(F)c3)n2)c1 [UNC10225310A]
DAPK1
  inhibition at 1 µM: 10%
FAK
  inhibition at 1 µM: 1%
AKT2
  inhibition at 1 µM: 0%
ERBB4
  inhibition at 1 µM: 84%
CLK2
  inhibition at 1 µM: 21%
BRSK2
  inhibition at 1 µM: 16%
CHEK2
  inhibition at 1 µM: 0%
EPHA8
  inhibition at 1 µM: 17%

## CS(=O)(=O)Cc1ccc(Nc2nccc(-c3c(-c4cccc(NC(=O)C5CCCCC5)c4)nn4ncccc34)n2)cc1 [UNC10225159A]
DAPK1
  inhibition at 1 µM: 0%
FAK
  inhibition at 1 µM: 0%
AKT2
  inhibition at 1 µM: 4%
ERBB4
  inhibition at 1 µM: 74%
CLK2
  inhibition at 1 µM: 10%
BRSK2
  inhibition at 1 µM: 0%
CHEK2
  inhibition at 1 µM: 0%
EPHA8
  inhibition at 1 µM: 15%

## Cc1ccc(NC(=O)Nc2cccc(C(F)(F)F)c2)cc1 [UNC10225187A]
DAPK1
  inhibition at 1 µM: 18%
FAK
  inhibition at 1 µM: 1%
AKT2
  inhibition at 1 µM: 3%
ERBB4
  inhibition at 1 µM: 0%
CLK2
  inhibition at 1 µM: 36%
BRSK2
  inhibition at 1 µM: 0%
CHEK2
  inhibition at 1 µM: 0%
EPHA8
  inhibition at 1 µM: 3%
